# According to ChEMBL document CHEMBL1201861, “Genomics of Drug Sensitity in Cancer screening data, Wellcome Trust Sanger Institute”:
# Assays:
# Test in all cases: cells
# Format in all cases: functional, cell-based, Homo sapiens
# TE-441-T = conditions: Homo sapiens, TE-441-T
# Description: SANGER: Inhibition of human TE-441-T cell growth in a cell viability assay.
# SR = conditions: Homo sapiens, SR
# Description: SANGER: Inhibition of human SR cell growth in a cell viability assay.
# Daudi = conditions: Homo sapiens, Daudi;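 further: growth inhibition of Daudi cells, read out by a viability assay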
# Description: SANGER: Inhibition of human Daudi cell growth in a cell viability assay.
# SK-MM-2 = conditions: Homo sapiens, SK-MM-2;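 further: growth inhibition of human SK-MM-2 cells, read out with a cell viability assay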
# Description: SANGER: Inhibition of human SK-MM-2 cell growth in a cell viability assay.
# NCI-H1436 = conditions: Homo sapiens, NCI-H1436;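 further: growth suppression of human NCI-H1436 cells, determined with a cell viability readout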
# Description: SANGER: Inhibition of human NCI-H1436 cell growth in a cell viability assay.
# Kasumi 1 = conditions: Homo sapiens, Kasumi 1;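 further: growth inhibition of human Kasumi-1 cells, read out by a cell viability assay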
# Description: SANGER: Inhibition of human KASUMI-1 cell growth in a cell viability assay.
# D-336MG = conditions: Homo sapiens, D-336MG
# Description: SANGER: Inhibition of human D-336MG cell growth in a cell viability assay.
# NCI-H524 = conditions: Homo sapiens, NCI-H524;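 further: growth inhibition of human NCI-H524 cells, read out through a cell viability assay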
# Description: SANGER: Inhibition of human NCI-H524 cell growth in a cell viability assay.
# LP-1 = conditions: Homo sapiens, LP-1;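 further: growth inhibition of human LP-1 cells, with the read-out taken from a cell viability assay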
# Description: SANGER: Inhibition of human LP-1 cell growth in a cell viability assay.
# MHH-CALL-2 = conditions: Homo sapiens, MHH-CALL-2;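 further: growth inhibition of the cell line, read out in a cell viability assay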
# Description: SANGER: Inhibition of human MHH-CALL-2 cell growth in a cell viability assay.
# NCI-H1694 = conditions: Homo sapiens, NCI-H1694;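 further: cell viability assay measuring inhibition of growth in human NCI-H1694 cells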
# Description: SANGER: Inhibition of human NCI-H1694 cell growth in a cell viability assay.
# PANC-08-13 = conditions: Homo sapiens, PANC-08-13;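 further: cell growth inhibition, measured with a cell viability assay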
# Description: SANGER: Inhibition of human PANC-08-13 cell growth in a cell viability assay.
# COLO-678 = conditions: Homo sapiens, COLO-678
# Description: SANGER: Inhibition of human COLO-678 cell growth in a cell viability assay.
# UMC-11 = conditions: Homo sapiens, UMC-11;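 further: growth inhibition of UMC-11 cells, read out with a cell viability assay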
# Description: SANGER: Inhibition of human UMC-11 cell growth in a cell viability assay.
# C32 = conditions: Homo sapiens, C32;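 further: cell viability assay, with IC50 reflecting inhibition of C32 cell growth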
# Description: SANGER: Inhibition of human C32 cell growth in a cell viability assay.
# HT-3 = conditions: Homo sapiens, HT-3;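 further: growth inhibition measured with a cell viability readout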
# Description: SANGER: Inhibition of human HT-3 cell growth in a cell viability assay.
# HuP-T4 = conditions: Homo sapiens, HuP-T4;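 further: cell viability assay measuring how much HuP-T4 cell growth is inhibited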
# Description: SANGER: Inhibition of human HuP-T4 cell growth in a cell viability assay.
# SW-620 = conditions: Homo sapiens, SW-620;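 further: growth inhibition of human SW-620 cells, measured by a cell viability assay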
# Description: SANGER: Inhibition of human SW620 cell growth in a cell viability assay.
# NCI-H2009 = conditions: Homo sapiens, NCI-H2009;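 further: cell viability assay measuring inhibition of NCI-H2009 cell growth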
# Description: SANGER: Inhibition of human NCI-H2009 cell growth in a cell viability assay.
# ACHN = conditions: Homo sapiens, ACHN;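 further: cell viability read-out used to gauge how strongly growth of human ACHN cells is suppressed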
# Description: SANGER: Inhibition of human ACHN cell growth in a cell viability assay.
# ESS-1 = conditions: Homo sapiens, ESS-1;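 further: growth inhibition of human ESS-1 cells, read out by a cell viability assay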
# Description: SANGER: Inhibition of human ESS-1 cell growth in a cell viability assay.
# CAL-33 = conditions: Homo sapiens, CAL-33;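 further: growth inhibition of CAL-33 cells, read out with a cell viability assay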
# Description: SANGER: Inhibition of human CAL-33 cell growth in a cell viability assay.
# SK-MEL-24 = conditions: Homo sapiens, SK-MEL-24;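 further: growth inhibition read out by a cell viability assay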
# Description: SANGER: Inhibition of human SK-MEL-24 cell growth in a cell viability assay.
# RPMI-2650 = conditions: Homo sapiens, RPMI-2650
# Description: SANGER: Inhibition of human RPMI-2650 cell growth in a cell viability assay.
# TYK-nu = conditions: Homo sapiens, TYK-nu;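 further: growth inhibition of human TYK-nu cells, read out by a cell viability assay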
# Description: SANGER: Inhibition of human TYK-nu cell growth in a cell viability assay.
# RVH-421 = conditions: Homo sapiens, RVH-421
# Description: SANGER: Inhibition of human RVH-421 cell growth in a cell viability assay.
# NCI-H2452 = conditions: Homo sapiens, NCI-H2452;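 further: growth inhibition of NCI-H2452 cells, read out with a cell viability assay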
# Description: SANGER: Inhibition of human NCI-H2452 cell growth in a cell viability assay.
# NCI-H2170 = conditions: Homo sapiens, NCI-H2170;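 further: cell viability assay measuring growth inhibition of human NCI-H2170 cancer cells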
# Description: SANGER: Inhibition of human NCI-H2170 cell growth in a cell viability assay.
# SNU-387 = conditions: Homo sapiens, SNU-387
# Description: SANGER: Inhibition of human SNU-387 cell growth in a cell viability assay.
# NCI-H2052 = conditions: Homo sapiens, NCI-H2052;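 further: growth inhibition of NCI-H2052 cells, read out with a cell viability assay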
# Description: SANGER: Inhibition of human NCI-H2052 cell growth in a cell viability assay.
# U-118-MG = conditions: Homo sapiens, U-118-MG
# Description: SANGER: Inhibition of human U-118-MG cell growth in a cell viability assay.
# Calu-3 = conditions: Homo sapiens, Calu-3;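 further: growth inhibition of human Calu-3 cells, determined with a cell viability assay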
# Description: SANGER: Inhibition of human Calu-3 cell growth in a cell viability assay.
# MKN-28 = conditions: Homo sapiens, MKN-28;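 further: cell viability assay read-out, IC50 reflects suppression of growth of human MKN-28 cells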
# Description: SANGER: Inhibition of human MKN28 cell growth in a cell viability assay.
# NCI-H292 = conditions: Homo sapiens, NCI-H292;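 further: growth inhibition of NCI-H292 cells, read out with a cell viability assay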
# Description: SANGER: Inhibition of human NCI-H292 cell growth in a cell viability assay.
# EFO-27 = conditions: Homo sapiens, EFO-27;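 further: growth inhibition of EFO-27 cells, read out with a cell viability assay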
# Description: SANGER: Inhibition of human EFO-27 cell growth in a cell viability assay.
# HuP-T3 = conditions: Homo sapiens, HuP-T3;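 further: HuP-T3 cell growth inhibition, read out with a cell viability assay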
# Description: SANGER: Inhibition of human HuP-T3 cell growth in a cell viability assay.
# RO82-W-1 = conditions: Homo sapiens, RO82-W-1;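 further: growth inhibition of human RO82-W-1 cells, measured with a cell viability assay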
# Description: SANGER: Inhibition of human RO82-W-1 cell growth in a cell viability assay.
# COLO-741 = conditions: Homo sapiens, COLO-741
# Description: SANGER: Inhibition of human COLO-741 cell growth in a cell viability assay.
# NCI-H441 = conditions: Homo sapiens, NCI-H441;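 further: growth inhibition of NCI-H441 cells, read out with a cell viability assay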
# Description: SANGER: Inhibition of human NCI-H441 cell growth in a cell viability assay.
# GP5d = conditions: Homo sapiens, GP5d;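 further: growth inhibition of human GP5d cells, read out with a cell viability assay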
# Description: SANGER: Inhibition of human GP5d cell growth in a cell viability assay.
# M059J = conditions: Homo sapiens, M059J;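 further: growth inhibition of M059J cells, read out with a cell viability assay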
# Description: SANGER: Inhibition of human M059J cell growth in a cell viability assay.
# CAL-120 = conditions: Homo sapiens, CAL-120;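 further: cell growth inhibition, read out as cell viability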
# Description: SANGER: Inhibition of human CAL-120 cell growth in a cell viability assay.
# ABC-1 = conditions: Homo sapiens, ABC-1;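 further: growth inhibition of human ABC-1 cells, read out by a cell viability assay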
# Description: SANGER: Inhibition of human ABC-1 cell growth in a cell viability assay.
# BFTC-905 = conditions: Homo sapiens, BFTC-905
# Description: SANGER: Inhibition of human BFTC-905 cell growth in a cell viability assay.
# HOP-92 = conditions: Homo sapiens, HOP-92;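 further: cell viability readout, with IC50 reflecting inhibition of HOP-92 cell growth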
# Description: SANGER: Inhibition of human HOP-92 cell growth in a cell viability assay.
# NCI-H1755 = conditions: Homo sapiens, NCI-H1755;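 further: cell viability readout used to measure growth inhibition of NCI-H1755 cells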
# Description: SANGER: Inhibition of human NCI-H1755 cell growth in a cell viability assay.
# SAOS-2 = conditions: Homo sapiens, SAOS-2;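 further: growth inhibition of human Saos-2 cells determined by a cell viability assay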
# Description: SANGER: Inhibition of human Saos-2 cell growth in a cell viability assay.
# YKG-1 = conditions: Homo sapiens, YKG-1;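 further: cell growth inhibition, read out with a viability assay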
# Description: SANGER: Inhibition of human YKG-1 cell growth in a cell viability assay.
compound,measurement,setting,value
COc1cc(N2CCN(C)CC2)ccc1Nc1ncc2c(n1)N(C)c1ccccc1C(=O)N2C,IC50,TE-441-T,> 8 µM
same,IC50,SR,6.48 µM
same,IC50,Daudi,> 8 µM
same,IC50,SK-MM-2,2.59 µM
same,IC50,NCI-H1436,> 8 µM
same,IC50,Kasumi 1,> 8 µM
same,IC50,D-336MG,0.769 µM
same,IC50,NCI-H524,> 8 µM
same,IC50,LP-1,> 8 µM
same,IC50,MHH-CALL-2,> 8 µM
same,IC50,NCI-H1694,> 8 µM
COc1cc(-c2nn([C@H]3CC[C@H](N4CCN(C(C)=O)CC4)CC3)c3ncnc(N)c23)ccc1NC(=O)c1cc2ccccc2n1C,IC50,TE-441-T,> 5.12 µM
same,IC50,SR,> 5.12 µM
same,IC50,Daudi,> 5.12 µM
same,IC50,SK-MM-2,> 5.12 µM
same,IC50,NCI-H1436,3.19 µM
same,IC50,Kasumi 1,> 5.12 µM
same,IC50,D-336MG,0.212 µM
same,IC50,NCI-H524,> 5.12 µM
same,IC50,LP-1,> 5.12 µM
same,IC50,MHH-CALL-2,> 5.12 µM
same,IC50,NCI-H1694,> 5.12 µM
Cc1ccc(-c2c(C(=O)CCl)n(CCCO)c3ncnc(N)c23)cc1,IC50,TE-441-T,> 4 µM
same,IC50,SR,> 4 µM
same,IC50,Daudi,> 4 µM
same,IC50,SK-MM-2,> 4 µM
same,IC50,NCI-H1436,> 4 µM
same,IC50,Kasumi 1,> 4 µM
same,IC50,D-336MG,> 4 µM
same,IC50,NCI-H524,> 4 µM
same,IC50,LP-1,> 4 µM
same,IC50,MHH-CALL-2,> 4 µM
same,IC50,NCI-H1694,> 4 µM
COc1cc2ncn(-c3cc(OCc4ccccc4S(C)(=O)=O)c(C#N)s3)c2cc1OC [GSK-319347A],IC50,TE-441-T,> 5 µM
same,IC50,SR,> 5 µM
same,IC50,Daudi,> 5 µM
same,IC50,SK-MM-2,> 5 µM
same,IC50,NCI-H1436,> 5 µM
same,IC50,Kasumi 1,> 5 µM
same,IC50,D-336MG,> 5 µM
same,IC50,NCI-H524,> 5 µM
same,IC50,LP-1,> 5 µM
same,IC50,MHH-CALL-2,> 5 µM
same,IC50,NCI-H1694,> 5 µM
COc1cc2ncn(-c3cc(OCc4ccccc4C(F)(F)F)c(C(N)=O)s3)c2cc1OC [GW843682X],IC50,TE-441-T,> 0.256 µM
same,IC50,SR,0.0145 µM
same,IC50,Daudi,0.0347 µM
same,IC50,SK-MM-2,> 0.256 µM
same,IC50,NCI-H1436,> 0.256 µM
same,IC50,Kasumi 1,> 0.256 µM
same,IC50,D-336MG,> 0.256 µM
same,IC50,NCI-H524,0.0654 µM
same,IC50,LP-1,0.0625 µM
same,IC50,MHH-CALL-2,> 0.256 µM
same,IC50,NCI-H1694,0.042 µM
Nc1cccc2c1CN(C1CCC(=O)NC1=O)C2=O (configuration not stated) [LENALIDOMIDE],IC50,PANC-08-13,> 5 µM
same,IC50,COLO-678,> 5 µM
same,IC50,UMC-11,> 5 µM
same,IC50,C32,> 5 µM
same,IC50,HT-3,> 5 µM
same,IC50,HuP-T4,> 5 µM
same,IC50,SW-620,> 5 µM
same,IC50,NCI-H2009,> 5 µM
same,IC50,ACHN,> 5 µM
same,IC50,ESS-1,> 5 µM
same,IC50,CAL-33,> 5 µM
same,IC50,SK-MEL-24,> 5 µM
same,IC50,RPMI-2650,> 5 µM
same,IC50,TYK-nu,> 5 µM
same,IC50,RVH-421,> 5 µM
same,IC50,NCI-H2452,> 5 µM
same,IC50,NCI-H2170,> 5 µM
same,IC50,SNU-387,> 5 µM
same,IC50,NCI-H2052,> 5 µM
same,IC50,U-118-MG,> 5 µM
same,IC50,Calu-3,> 5 µM
same,IC50,MKN-28,> 5 µM
same,IC50,NCI-H292,> 5 µM
same,IC50,EFO-27,> 5 µM
same,IC50,HuP-T3,> 5 µM
same,IC50,RO82-W-1,> 5 µM
same,IC50,COLO-741,> 5 µM
same,IC50,Kasumi 1,> 5 µM
same,IC50,NCI-H441,> 5 µM
same,IC50,GP5d,> 5 µM
same,IC50,M059J,> 5 µM
same,IC50,CAL-120,> 5 µM
same,IC50,ABC-1,> 5 µM
same,IC50,BFTC-905,> 5 µM
same,IC50,HOP-92,> 5 µM
same,IC50,D-336MG,> 5 µM
same,IC50,NCI-H1755,> 5 µM
same,IC50,SAOS-2,> 5 µM
same,IC50,YKG-1,> 5 µM
Cc1cn(-c2cc(NC(=O)c3ccc(C)c(Nc4nccc(-c5cccnc5)n4)c3)cc(C(F)(F)F)c2)cn1 [NILOTINIB],IC50,PANC-08-13,> 2 µM
same,IC50,COLO-678,> 2 µM
same,IC50,UMC-11,> 2 µM
same,IC50,C32,> 2 µM
same,IC50,HT-3,> 2 µM
same,IC50,HuP-T4,> 2 µM
same,IC50,SW-620,> 2 µM
same,IC50,NCI-H2009,> 2 µM
same,IC50,ACHN,> 2 µM
same,IC50,ESS-1,> 2 µM
same,IC50,CAL-33,> 2 µM
same,IC50,SK-MEL-24,> 2 µM
same,IC50,RPMI-2650,> 2 µM
same,IC50,TYK-nu,> 2 µM
same,IC50,RVH-421,> 2 µM
same,IC50,NCI-H2452,> 2 µM
same,IC50,NCI-H2170,> 2 µM
same,IC50,SNU-387,> 2 µM
same,IC50,NCI-H2052,> 2 µM
same,IC50,U-118-MG,> 2 µM
same,IC50,Calu-3,> 2 µM
same,IC50,MKN-28,> 2 µM
same,IC50,NCI-H292,> 2 µM
same,IC50,EFO-27,> 2 µM
same,IC50,HuP-T3,> 2 µM
same,IC50,RO82-W-1,> 2 µM
same,IC50,COLO-741,> 2 µM
same,IC50,Kasumi 1,0.0241 µM
same,IC50,NCI-H441,> 2 µM
same,IC50,GP5d,> 2 µM
same,IC50,M059J,> 2 µM
same,IC50,CAL-120,> 2 µM
same,IC50,ABC-1,> 2 µM
same,IC50,BFTC-905,> 2 µM
same,IC50,HOP-92,> 2 µM
same,IC50,D-336MG,> 2 µM
same,IC50,NCI-H1755,> 2 µM
same,IC50,SAOS-2,> 2 µM
same,IC50,YKG-1,> 2 µM
CC(=O)O[C@H]1C(=O)[C@@]2(C)[C@H]([C@H](OC(=O)c3ccccc3)[C@]3(O)C[C@H](OC(=O)[C@H](O)[C@@H](NC(=O)c4ccccc4)c4ccccc4)C(C)=C1C3(C)C)[C@]1(OC(C)=O)CO[C@@H]1C[C@@H]2O [PACLITAXEL],IC50,TE-441-T,> 0.102 µM
same,IC50,SR,0.0103 µM
same,IC50,Daudi,0.0171 µM
same,IC50,SK-MM-2,> 0.102 µM
same,IC50,NCI-H1436,0.0123 µM
same,IC50,Kasumi 1,> 0.102 µM
same,IC50,D-336MG,> 0.102 µM
same,IC50,NCI-H524,0.0353 µM
same,IC50,LP-1,> 0.102 µM
same,IC50,MHH-CALL-2,0.0356 µM
same,IC50,NCI-H1694,> 0.102 µM
N[C@@H](CSC(c1ccccc1)(c1ccccc1)c1ccccc1)C(=O)O [S-TRITYL-L-CYSTEINE],IC50,TE-441-T,4.79 µM
same,IC50,SR,0.718 µM
same,IC50,Daudi,1.17 µM
same,IC50,SK-MM-2,> 5.12 µM
same,IC50,NCI-H1436,0.889 µM
same,IC50,Kasumi 1,> 5.12 µM
same,IC50,D-336MG,> 5.12 µM
same,IC50,NCI-H524,1.03 µM
same,IC50,LP-1,3.11 µM
same,IC50,MHH-CALL-2,> 5.12 µM
same,IC50,NCI-H1694,> 5.12 µM
CC[C@H](CO)Nc1nc(NCc2ccccc2)c2ncn(C(C)C)c2n1 [SELICICLIB],IC50,TE-441-T,> 16 µM
same,IC50,SR,> 16 µM
same,IC50,Daudi,> 16 µM
same,IC50,SK-MM-2,> 16 µM
same,IC50,NCI-H1436,> 16 µM
same,IC50,Kasumi 1,> 16 µM
same,IC50,D-336MG,> 16 µM
same,IC50,NCI-H524,> 16 µM
same,IC50,LP-1,> 16 µM
same,IC50,MHH-CALL-2,> 16 µM
same,IC50,NCI-H1694,> 16 µM
CCN(CC)CCNC(=O)c1c(C)[nH]c(/C=C2\C(=O)Nc3ccc(F)cc32)c1C [SUNITINIB],IC50,TE-441-T,> 8 µM
same,IC50,SR,1.55 µM
same,IC50,Daudi,> 8 µM
same,IC50,SK-MM-2,5.48 µM
same,IC50,NCI-H1436,> 8 µM
same,IC50,Kasumi 1,> 8 µM
same,IC50,D-336MG,> 8 µM
same,IC50,NCI-H524,> 8 µM
same,IC50,LP-1,> 8 µM
same,IC50,MHH-CALL-2,5.77 µM
same,IC50,NCI-H1694,> 8 µM
